# Measurements reported in patent US20160205934A1 (Rohm and Haas Company, priority 2013, published 2016).
# Where two headings read alike, the source gives them in different places.
# Assays:
# [1] = test system: Chlorella sp. ATCC 7516; experiment: Algal efficacy testing of dry paint films (modified ASTM 5589, 6-well plates); type: cell-based; conditions: 4 weeks; for inhibition at 1000 ppm: total conc 1000 ppm; for Total conc: total biocide conc in paint chosen as minimum inhibitory concentration (pass level 75% inhibition), or maximum tested where pass not reached
# Experimental: (§1) The at least one phenylurea herbicide, (diuron, chlorotoluron, and/or isoproturon) was post added, as 33% active slurries, to a white, acrylic/silicone based outdoor paint free of biocides to give a total active ingredient concentration of 10000 and 1000 ppm respectively. These paints were then diluted with an antimicrobial free acrylic/silicone based paint and mixed to prepare targeted concentrations of antimicrobial compounds for the testing. The total biocides concentrations tested were 125, 250, 500, 1000, 2000 and 5000 ppm. After biocides addition or dilution, the paints were mixed 90 seconds with the horse power shaker (AXEL 75M3372/Agitateur SO-10MI) until uniformity was achieved. Paints containing different antimicrobial compounds at the same levels were mixed together in order to obtain the desired ratio of antimicrobial compounds. After one day, the paints were applied to Schleicher & Schuell filter paper at 280 μm wet film thickness and dried for 3 days at room temperature avoiding direct exposure to sunlight. Square discs (1.6 cm×1.6 cm) were cut out from each panel and were used as the substrate for algal efficacy tests. This sample size allowed for an agar border when the sample disc was placed into the well of the test plate.
# (§2) Algal efficacy was tested according to modified ASTM 5589 which is a standard accelerated test method for determining resistance of various coatings (including paints) to algal defacement. To accommodate for high-throughput screening, this method was scaled down from petri dishes to 6-well plates. Bold Modified Basal Freshwater Nutrient Solution was used as growth medium. A single coated filter paper coupon was placed with a pair of sterile forceps at the center of the agar plug (on top) with the painted surface facing upwards. Algal inoculums were prepared by mixing equal concentrations (1×10^6 cfu/ml) and equal volumes of exponentially growing algae cultures.
# (§3) Each well that contains a tested coupon was inoculated with 1750 μl of algal suspensions (1×10^6 cfu/ml) making sure that the whole surface (paint film as well as the agar surrounding it) was evenly covered. The plates were incubated at room temp (21° C.-25° C.) with cyclic exposure to light and dark phases, for a period of four weeks.
# (§4) At the end of the four week incubation period, the samples were scored for percent inhibition regarding visible algal growth compared to the blank sample (0% inhibition).
# (§5) The minimal targeted inhibition was set at 75%, meaning a coupon with at least 75% algal growth inhibition was considered as a pass.
# [2] = test system: Stichococcus bacillaris SAG 379-1a / CCAP 379/1a; experiment: as above; type: cell-based; conditions: for Total conc: total biocide conc in paint chosen as minimum inhibitory concentration (pass level 75% inhibition), or maximum tested where pass not reached
# Experimental: as §1, §2, §3, §4, §5
# [3] = 672 h, visible algal growth vs blank
# [4] = Stichococcus bacillaris, 672 h, Stichococcus, total conc 500 ppm, 4 weeks, visible algal growth vs blank, read-out: % inhibition
SMILES,"inhibition at 1000 ppm [1, 3] [%]",Total conc [1] [ppm],"inhibition at 500 ppm [2, 4] [%]","Total conc ([2]; Stichococcus, 4 weeks) [ppm]","inhibition at 500 ppm ([1]; 672 h, total conc 500 ppm, visible algal growth vs blank) [%]","inhibition at 500 ppm ([2]; Stichococcus bacillaris, 672 h) [%]","inhibition at 5000 ppm ([1]; 672 h, total conc 5000 ppm, visible algal growth vs blank) [%]","% inhibition ([1]; total conc 5000 ppm, visible algal growth vs blank) [%]","inhibition at 2000 ppm ([2]; Stichococcus bacillaris, 672 h) [%]","inhibition at 5000 ppm ([2]; Stichococcus bacillaris, 672 h) [%]"
"Cc1ccc(NC(=O)N(C)C)cc1Cl [Chlorotoluron, chlorotoluron]",100,1000,75,500,–,–,–,–,–,–
"CN(C)C(=O)Nc1ccc(Cl)c(Cl)c1 [Diuron, diuron]",–,500,–,500,90,95,–,–,–,–
"CC(C)c1ccc(NC(=O)N(C)C)cc1 [Isoproturon, isoproturon]",100,1000,75,500,–,–,–,–,–,–
"O=c1[nH]c2c(c(=O)n1C1CCCCC1)CCC2 [Lenacil, 3-cyclohexyl-1,5,6,7-tetrahydrocyclopentapyrimidine-2,4(3H)-dione]",–,5000,–,–,–,–,45,50,80,65
